The values that follow come from publication PMC12440886, “Inhibition of the oncogenic channel Kv10.1 by the antipsychotic drug penfluridol” (Frontiers in Pharmacology, 2025).

Molecules are shown by their SMILES.

The target in test [1] is T1, Kv10.1 (Homo sapiens, UniProt O95259).
T1 construct: gene KCNH1
T1 sequence (O95259 1-989): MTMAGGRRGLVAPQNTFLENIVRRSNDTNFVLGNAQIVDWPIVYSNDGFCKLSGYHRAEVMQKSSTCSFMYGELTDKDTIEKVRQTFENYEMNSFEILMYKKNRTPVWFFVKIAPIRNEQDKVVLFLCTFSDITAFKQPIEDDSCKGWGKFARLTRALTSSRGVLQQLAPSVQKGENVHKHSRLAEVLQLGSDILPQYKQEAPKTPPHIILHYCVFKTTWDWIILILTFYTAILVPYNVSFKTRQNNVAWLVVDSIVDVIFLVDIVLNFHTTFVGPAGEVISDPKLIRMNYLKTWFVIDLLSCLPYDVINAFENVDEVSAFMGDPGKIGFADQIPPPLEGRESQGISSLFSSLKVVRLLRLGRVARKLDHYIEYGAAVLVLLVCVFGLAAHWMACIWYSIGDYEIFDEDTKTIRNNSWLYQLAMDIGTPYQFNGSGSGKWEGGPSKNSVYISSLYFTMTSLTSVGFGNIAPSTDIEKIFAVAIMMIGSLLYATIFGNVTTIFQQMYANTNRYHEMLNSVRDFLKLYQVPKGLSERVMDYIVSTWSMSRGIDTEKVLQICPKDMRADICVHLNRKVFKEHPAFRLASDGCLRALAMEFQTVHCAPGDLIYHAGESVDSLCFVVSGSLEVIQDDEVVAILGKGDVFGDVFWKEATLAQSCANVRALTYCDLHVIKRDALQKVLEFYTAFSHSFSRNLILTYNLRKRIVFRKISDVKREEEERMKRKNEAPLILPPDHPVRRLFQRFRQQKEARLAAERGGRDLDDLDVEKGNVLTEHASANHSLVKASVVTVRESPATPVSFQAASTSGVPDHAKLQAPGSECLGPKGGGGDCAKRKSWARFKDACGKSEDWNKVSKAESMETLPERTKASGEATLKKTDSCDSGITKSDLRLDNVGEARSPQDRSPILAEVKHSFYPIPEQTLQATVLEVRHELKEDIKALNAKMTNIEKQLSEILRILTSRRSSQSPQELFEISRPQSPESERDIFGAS
Put plainly: FLIPR membrane potential fluorescence assay in HEK-Kv10.[…] cells, single concentration ([…]). The class given is cell-based. The note with it: read-out: % decrease in response amplitude at 100 μM.

The target in test [2] is T1, Kv10.1. The experiment in a line: whole-cell patch-clamp, HEK293 cells stably expressing human Kv10.[…]. The class given is cell-based.

For `CN(C)C(=O)C(CCN1CCC(O)(c2ccc(Cl)cc2)CC1)(c1ccccc1)c1ccccc1` [LP, loperamide], the inhibition at 100 µM in test [1] stood at 46.1%.

As for `OC1(c2ccc(Cl)c(C(F)(F)F)c2)CCN(CCCC(c2ccc(F)cc2)c2ccc(F)cc2)CC1` [PNFL, penfluridol], it took 2700 ± 300 nM to reach half-maximal inhibition in test [2] (IC50).
